Measured values: patent US20250282775A1, “SOLID FORM OF 3-((1R,3R)-1-(2,6-DIFLUORO-4-((1-(3- FLUOROPROPYL)AZETIDIN-3-YL)AMINO)PHENYL)-3-METHYL-1,3,4,9- TETRAHYDRO-2H-PYRIDO[3,4-B]INDOL-2-YL)-2,2-DIFLUOROPROPAN-1-OL TARTRATE” (Hoffmann-La Roche Inc., priority 2022, published 2025)

How the values were obtained:
Type in all cases: physicochemical
[1] = Bulk density, tapped density and flowability of API; conditions: for Bulk Density / Tapped Density: API lot
Experimental: (§1) The following table illustrates the improved manufacturability properties of the crystalline API that is prepared according to the process of the present invention (lot “BS2008SA02”). The E1 lot was prepared according to the process described in WO2019245974.

[2] = Effect of compression on API degradation (HPLC); conditions: 60° C./11% RH, containers open, up to 4 weeks, tartrate
Experimental: The effect of compression on API degradation was investigated. Samples of uncompressed API (neat API powder as-is) and compressed API (compact) were aged at 60° C./11% RH with containers open for up to 1 month. Samples were assayed by HPLC (see Example 10). […] The following HPLC method was used to measure the RRCs described herein: [table]

[3] = Particle size distribution by laser diffraction; conditions: API lot
Experimental: The particle size distribution of crystalline 3-((1R,3R)-1-(2,6-difluoro-4-((1-(3-fluoropropyl)azetidin-3-yl)amino)phenyl)-3-methyl-1,3,4,9-tetrahydro-2H-pyrido[3,4-b]indol-2-yl)-2,2-difluoropropan-1-ol tartrate of the invention was analyzed by laser diffraction as described in the USP <429> for Laser Diffraction Measurement of Particle Size and in the European Pharmacopoeia chapter 2.9.31 Particle size analysis by Laser Diffraction. Details of the apparatus used and measurements are given in Example 3.
For the measurement, a Malvern MasterSizer 3000 device from Malvern, UK, coupled with a liquid dispersion unit Hydro MV®, Malvern, UK was used. The crystalline Giredestrant tartrate as obtained from Example 1 or 2 was dispersed in dispersion medium consisting in technical grade n-heptane with 0.2% w/w.-% Span 85 (Sorbitane trioleate, e.g. Fluka/Sigma Cat. Nr. 85549 or equivalent) non-saturated.
Procedure: the crystalline Giredestrant tartrate is directly added in the Hydro MV dispersion unit and stirred at 2500 rpm achieving an appropriate optical concentration (between 5% and 25% optical concentrations).
Measurement: The test dispersion was measured and the cumulative volume dispersion was determined using the laser diffraction instrument mentioned above in accordance with the instruction manual. Measurements were performed after 2 minutes stirring time. The Fraunhofer approximation was used for the particle diameters calculations, Opaque Particle was used for the Particle type and General purpose was used for the Analysis model. The background and the measuring duration were set at 30 seconds.
Three independent samples were measured one time. The average particle size distribution in volume at the undersize values of 10%, 50% and 90% (×10, ×50 and ×90) percentiles were evaluated from the cumulative distribution.
as §1

[4] = BET surface area of API lots; conditions: API lot
Experimental: as §1

[5] = Form B as prepared per WO2019245974

Row | SMILES | bulk density (in words) [1, 5] | flowability [1, 5] | growth of the impurity at RRT=0.58 ([2]; listed as compressed API) | growth of the impurity at RRT=0.58 ([2]; listed as uncompressed API) | D10 [3] [μm] | D50 [3] [μm] | D90 [3] [μm] | Bulk Density [1] [g/mL] | Tapped Density [1] [g/mL] | BET SA [4] [m2/g]
1 | C[C@@H]1Cc2c([nH]c3ccccc23)[C@@H](c2c(F)cc(NC3CN(CCCF)C3)cc2F)N1CC(F)(F)CO.O=C(O)C(O)C(O)C(=O)O [giredestrant tartrate, 3-((1R,3R)-1-(2,6-difluoro-4-((1-(3-fluoropropyl)azetidin-3-yl)amino)phenyl)-3-methyl-1,3,4,9-tetrahydro-2H-pyrido[3,4-b]indol-2-yl)-2,2-difluoropropan-1-ol tartrate] | low bulk density | poor flowability | faster growth rate | growth of the impurity at RRT=0.58 was observed |  |  |  |  |  | 
2 | C[C@@H]1Cc2c([nH]c3ccccc23)[C@@H](c2c(F)cc(NC3CN(CCCF)C3)cc2F)N1CC(F)(F)CO.O=C(O)C(O)C(O)C(=O)O [BS2008SA02] |  |  |  |  | 30 | 41 | 56 | 0.57 | 0.64 | 1.7
3 | C[C@@H]1Cc2c([nH]c3ccccc23)[C@@H](c2c(F)cc(NC3CN(CCCF)C3)cc2F)N1CC(F)(F)CO.O=C(O)C(O)C(O)C(=O)O [711-005-5467-001 (E1)] |  |  |  |  | 2 | 8 | 27 | 0.31 | 0.41 | 2.9
